Test results published in PMC9698773, “Design, Synthesis, Molecular Modeling, and Anticancer Evaluation of New VEGFR-2 Inhibitors Based on the Indolin-2-One Scaffold” (Pharmaceuticals, 2022).

Columns and labels:
HepG2 cell line = experiment: MTT cytotoxicity assay, HepG2; assay type: cell-based, human; details: for IC50: mean ± SD of three experiments
Description: (§1) The cytotoxic activities against breast MCF-7 and liver HepG2 cancer cell lines for all the synthesized compounds 3a,b–17a,b were evaluated by MTT-based cytotoxicity assay. Sunitinib was selected as a reference standard in this study, and the results are presented as IC50 in Table 1.
(§2) The anticancer activities of the target compounds 3a,b–17a,b were quantitatively assessed using the MTT protocol against the MCF-7 and HepG2 cell lines, as described in the Supplementary Materials. […]
(§3) 4.2. Biological investigation
(§4) 4.2.1. In vitro cytotoxic activity assay
(§5) Citation: Abdelgawad, M.A.; Cell Line cells were obtained from the American Type Culture Collection. The cells Hayallah A.M.; Bukhari S.N.A.; were cultured using DMEM (Invitrogen/Life Technologies) supplemented with 10% FBS Musa A.; Elmowafy M.; (Hyclone,), 10 ug/ml of insulin (Sigma), and 1% penicillin‐streptomycin. All of the other Abdel‐Rahman, H.M.; chemicals and reagents were from Sigma or Invitrogen. Plate cells (cells density 1.2 – 1.8 Abd El‐Gaber, M.K. Design, × 10,000 cells/well) in a volume of 100μl complete growth medium + 100 μl of the tested Synthesis, Molecular Modeling, and compound per well in a 96‐well plate for 24 hours before the MTT assay. The tested com‐ Anticancer Evaluation of New pounds were dissolved in DMSO just before the test.
(§6) VEGFR‐2 Inhibitors Based on the Indolin‐2‐One Scaffold. 4.2.1.1. Cell culture protocol
(§7) Pharmaceuticals 2022, 15, x. The culture medium was removed to a centrifuge tube. The cell layer was briefly https://doi.org/10.3390/xxxxx rinsed with 5 mL of 0.25% (w/v) Trypsin and 3 mL of 0.53 mM EDTA solution to remove Academic Editor(s): Mary J. Meegan all traces of serum which contains Trypsin inhibitor. Next, 2.0 to 3.0 ml of Trypsin EDTA Received: 18 October 2022 solution was added to the flask and cells were observed under an inverted microscope Accepted: 9 November 2022 until the cell layer was dispersed (usually within 5 to 15 minutes). Then, 6.0 to 8.0 mL of Published: 14 November 2022 complete growth medium was added and cells aspirated by gently pipetting. The cell suspension was transferred to the centrifuge tube with the medium and cells from step 1, Publisher’s Note: MDPI stays neu‐and centrifuged at approximately 125 xg for 5 to 10 minutes. The supernatant was dis‐ tral with regard to jurisdictional carded and the cell pellet was suspended in fresh growth medium. Appropriate aliquots claims in published maps and institu‐ of the cell suspension were added to new culture vessels and incubated at 37°C for 24 hrs. tional affiliations. After treatment of cells with the serial concentrations of the compound to be tested, incu‐ bation was carried out for 48 h at 37 °C. The plates were examined under an inverted mi‐ croscope and proceeded for the MTT assay […]
(§8) Submitted for possible open access 4.2.1.2. […]
(§9) HepG‐2) were used in this test. At first, the cell lines were cultured in RPMI‐1640 medium Pharmaceuticals 2022, 15, x. https://doi.org/10.3390/xxxxx. www.mdpi.com/journal/pharmaceuticals […]
(§10) Pharmaceuticals 2022, 15, x FOR PEER REVIEW 2 of 22 with 10% fetal bovine serum. Antibiotics (100 units/ml penicillin and100 μg/ml strepto‐ mycin) were added at 37 °C in a 5% CO2 incubator. The cell lines were seeded in a 96‐well plate at a density of 1.0 x 10^4 cells / well at 37 °C for 48 h under 5% CO2. After incubation, the cells were treated with different concentrations of the synthesized compounds and incubated for 24 h. After 24 h of drug treatment, 20 μl of MTT solution (5mg/ml) was added and incubated for 4 h. 100 μl of dimethyl sulfoxide (DMSO) was added into each well to dissolve the formed purple formazan. The colored solution was measured and recorded at an absorbance of 570 nm using a plate reader (EXL 800, USA). The relative cell viability was calculated in percentage as (A570 of treated samples/A570 of untreated sam‐ ple) X 100. The half maximal inhibitory concentration (IC50) values were presented using […]

MCF-7 cell line = experiment: MTT cytotoxicity assay, MCF-7; assay type: cell-based, human
Description: as §1, §2, §3, §4, §5, §6, §7, §8, §9, §10

O=C1Nc2ccccc2C1=Nc1ccc(C(=O)NNC(=S)Nc2ccccc2)cc1 [Compound 17a, 2-(4-((2-Oxoindolin-3-ylidene)amino)benzoyl)-N-phenylhydrazinecarbothioamide]
IC50 (HepG2 cell line; Homo sapiens, HepG2, MTT assay): 1130 ± 60 nM
IC50 (HepG2 cell line; MTT assay): 1130 ± 60 nM
fold more potent than sunitinib, HepG2 (HepG2 cell line; ratio of IC50 to sunitinib): two-fold
IC50 (MCF-7 cell line; Homo sapiens, MCF7, MTT assay, mean ± SD of three experiments): 1440 ± 110 nM
fold more potent than sunitinib, MCF-7 (MCF-7 cell line; ratio of IC50 to sunitinib): three-fold
